Laboratory results from patent US12365656B2, “Oxazolidinone compounds and methods of use thereof as antibacterial agents” (priority 2019, dated 2025).
Values after ≈ are worked out from the molar mass of the structure shown. Like-named read-outs stand apart in the source and are kept apart here.

Columns and labels:
Format in all cases: cell-based
[1] = tested on: mitochondrial protein synthesis in HepG2 cells; assay: Mitochondrial protein synthesis assay; details: 4 days, COX-1 relative to SDH-A / Janus Green, In Cell ELISA, read-out: MPS IC50
[2] = tested on: Mycobacterium tuberculosis (Mtb-GFP; H37Rv pMSP12::GFP); assay: microbe, parasite or virus in culture; details: for MIC: Mycobacterium tuberculosis, H37RV, 168 h, pH 6.8, read-out: Mtb Cho MITC95
[3] = tested on: Mycobacterium tuberculosis (Mtb-GFP; H37Rv pMSP12::GFP); assay: microbe, parasite or virus in culture; details: for MIC: Mycobacterium tuberculosis, H37RV, 168 h, pH 6.8, read-out: Mtb Glu MITC95

| Compound | IC50 [1] [µM] | Mtb Cho MITC95 ([2]; cholesterol carbon source, pH 6.8, 7-day growth, GFP fluorescence, lowest concentration inhibiting 95% of growth) [µM] | Mtb Glu MITC95 ([3]; glucose carbon source, pH 6.8, 7-day growth, GFP fluorescence, lowest concentration inhibiting 95% of growth) [µM] | IC50 ([1]; Homo sapiens, 96 h) [µM] | MIC [2] [µM] | MIC [3] [µM] |
| --- | --- | --- | --- | --- | --- | --- |
| 4-{2,6-difluoro-4-[(5R)-5-(hydroxymethyl)-2-oxo-1,3-oxazolidin-3-yl]phenyl}-4-hydroxy-1λ^6-thiane-1,1-dione [Example 34] | > 100 | 25 | 25 | – | – | – |
| CN=S1(=O)CCN(c2c(F)cc(N3C[C@H](CO)OC3=O)cc2F)CC1 [Example 27, 4-{2,6-difluoro-4-[(5R)-5-(hydroxymethyl)-2-oxo-1,3-oxazolidin-3-yl]phenyl}-1-(methylimino)-1λ^6-thiomorpholin-1-one] | – | – | – | > 100 | 6.3 (≈ 2.37 µg/mL) | 6.3 (≈ 2.37 µg/mL) |
| CN1CC(S(=O)(=O)c2ccc(-c3ccc(N4C[C@H](CO)OC4=O)cc3F)cc2)C1 [Example 20, (5R)-3-[2-fluoro-4′-(1-methylazetidine-3-sulfonyl)[1,1′-biphenyl]-4-yl]-5-(hydroxymethyl)-1,3-oxazolidin-2-one] | – | – | – | 7.4 | 0.39 (≈ 0.164 µg/mL) | 0.39 (≈ 0.164 µg/mL) |
